Where a SMILES comes first, the peptide text is derived from it.
Experiments:
Assay in all cases: biochemical
Format in all cases: binding
[1] = target: T1, HLA-DRB1*0101 (Homo sapiens, UniProt P01903+P01911, A100R/D57E/F55L/F60I/F76Y/I96L/L162R/M171V/P40L/Q125E/R42F/V115G/Y59C); details: binding inhibition assay; NB = non-binder (no dose-dependent inhibition); read-out: DRB1*0101 IC50
T1 construct: purchased
Description: (§1) The binding assay conducted by EpiVax yields an indirect measure of peptide-MHC affinity as it utilizes a competition assay format per the methodology described in Steere et al. ([35]). […] Post incubation, the mixtures are moved to a 96-well plate coated with anti-HLA-DR antibody to capture HLA-peptide complexes. Time-resolved fluorescence measurement of the bound labeled reference peptide complex present in each mixture is detected with a europium-linked probe via fluorescent spectrophotometry using a SpectraMax M5 system. HLA binding affinity of each test peptide is expressed as the percent inhibition of reference peptide binding. Percent inhibition values (across the test peptide titration range) are used to calculate the half maximal inhibitory concentration (IC50) of each test peptide. For these studies, test peptides were assessed using a range of final concentrations from 100,000 nM to 100 nM. The panel of commercially-available HLA-DRB1 allele monomers used includes: *0101, *0301, *0401, *0701, *0801, *1101, *1301 and *1501. EpiVax established HLA-DRB1 binding affinity cutoffs were used to rank the IC50 values.
(§2) In vitro HLA binding assays (step 2 of workflow shown in Figure 1 ) were carried out with the synthesized peptides to verify the EpiMatrix outputs and provide a measure of accuracy for comparing in silico-predicted HLA-DRB1 allele binding to laboratory assessments of HLA-DRB1 allele binding. These assessments were conducted using a competition assay format whereby IC50 values were calculated based on the ability of the test peptide to compete with a labeled, high binding affinity reference peptide for HLA-DRB1 molecule binding. Sequences for the high affinity reference peptides and the negative control peptide, known not to bind any of the HLA-DRB1 molecules, are provided in Table S18 .

[2] = target: HLA-DRB1*1101 (Homo sapiens, UniProt P01903+P01911, A100R/A169T/A87E/I96F/K41T/L162R/M171V/P40S/Q125H/Q178H/Q39Y/Q99D/R42S/S66Y/T262R/V115G/W38E); details: binding inhibition assay; NB = non-binder (no dose-dependent inhibition); read-out: DRB1*1101 IC50
HLA-DRB1*1101, sequence (P01903 26-254 limits assumed, other chains not shown): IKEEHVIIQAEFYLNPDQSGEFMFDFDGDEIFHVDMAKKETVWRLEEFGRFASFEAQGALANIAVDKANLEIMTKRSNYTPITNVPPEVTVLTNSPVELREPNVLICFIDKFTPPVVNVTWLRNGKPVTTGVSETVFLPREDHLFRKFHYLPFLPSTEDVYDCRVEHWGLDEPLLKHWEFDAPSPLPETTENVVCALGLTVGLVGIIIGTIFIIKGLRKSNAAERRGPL
Description: as §1, §2

[3] = target: HLA-DRB1*1301 (Homo sapiens, UniProt P01903+P01911, A100E/A169T/K41T/L162R/M171V/P40S/Q125H/Q178H/Q39Y/Q99D/R42S/S66N/T262R/W38E/Y61H); details: binding inhibition assay; NB = non-binder (no dose-dependent inhibition); read-out: DRB1*1301 IC50
Description: as §1, §2

[4] = target: T2, HLA-DRB1*1501 (Homo sapiens, UniProt P01903+P01911); details: binding inhibition assay; NB = non-binder (no dose-dependent inhibition); read-out: DRB1*1501 IC50
T2 construct: purchased
Description: as §1, §2

[5] = target: HLA-DRB1*0701 (Homo sapiens, UniProt P01903+P01911, A100R/A102G/A103Q/D57E/D86V/E43K/F76Y/K127E/L162R/M171V/P40G/Q125H/Q99D/R33Q/R42Y/R54Q/S133A/S66F/T210M/V115G/Y107V/Y59L/Y89S); details: binding inhibition assay; NB = non-binder (no dose-dependent inhibition); read-out: DRB1*0701 IC50
Description: as §1, §2

[6] = target: HLA-DRB1*0801 (Homo sapiens, UniProt P01903+P01911, A100R/A103L/A169T/D86S/F76Y/H45Y/I96F/K41T/L162R/M171V/P40S/Q125H/Q178H/Q39Y/Q99D/R218S/R42G/S66Y/V115G/W38E); details: binding inhibition assay; NB = non-binder (no dose-dependent inhibition); read-out: DRB1*0801 IC50
Description: as §1, §2

SMILES	IC50 [1] [µM]	IC50 [2] [µM]	IC50 [3] [µM]	IC50 [4] [µM]	IC50 [5] [µM]	IC50 [6] [µM]
CC[C@H](C)[C@H](NC(=O)[C@H](CC(N)=O)NC(=O)[C@H](CC(N)=O)NC(=O)[C@H](CCCCN)NC(=O)[C@H](Cc1c[nH]cn1)NC(=O)[C@H](CCC(=O)O)NC(=O)[C@H](CO)NC(=O)[C@H](CC(C)C)NC(=O)[C@H](CCSC)NC(=O)[C@H](C)NC(=O)[C@H](CCC(=O)O)NC(=O)[C@H](Cc1c[nH]c2ccccc12)NC(=O)[C@H](CC(C)C)NC(=O)[C@H](CCCCN)NC(=O)[C@H](CCC(=O)O)NC(C)=O)C(=O)N[C@@H](CC(N)=O)C(=O)N[C@@H](CC(N)=O)C(N)=O [EBA175_008] (Ac-EKLWEAMLSEHKNNINN-NH2)	5.61	> 100	> 100	80.6		
CC[C@H](C)[C@H](NC(C)=O)C(=O)N[C@@H](CC(C)C)C(=O)N[C@@H](C)C(=O)N[C@H](C(=O)N[C@@H](C)C(=O)N[C@H](C(=O)N[C@@H](Cc1ccc(O)cc1)C(=O)N[C@@H](CCC(=O)O)C(=O)N[C@@H](CO)C(=O)N[C@@H](CCCNC(=N)N)C(=O)N[C@H](C(=O)N[C@@H](CC(C)C)C(=O)N[C@@H](CCCCN)C(=O)N[C@@H](CCCNC(=N)N)C(=O)N[C@@H](CCCCN)C(=O)N[C@@H](Cc1ccc(O)cc1)C(=O)N[C@@H](CCCCN)C(=O)N[C@@H](CC(N)=O)C(=O)N[C@@H](CCCCN)C(=O)N[C@@H](CC(=O)O)C(=O)N[C@@H](CC(=O)O)C(=O)N[C@@H](CCCCN)C(=O)N[C@@H](CCC(=O)O)C(N)=O)[C@@H](C)CC)[C@@H](C)CC)[C@@H](C)CC [EBA175_010] (Ac-ILAIAIYESRILKRKYKNKDDKE-NH2)	0.27	44.2	4.41	0.035	6.27	17.6
CC[C@H](C)[C@H](NC(=O)[C@H](CO)NC(=O)[C@H](CCCCN)NC(=O)[C@H](Cc1ccccc1)NC(=O)[C@H](CCC(=O)O)NC(=O)[C@H](CO)NC(=O)[C@H](Cc1ccc(O)cc1)NC(=O)[C@H](CCSC)NC(=O)[C@H](CCCCN)NC(=O)[C@H](Cc1ccc(O)cc1)NC(=O)[C@H](CC(N)=O)NC(=O)[C@H](CC(N)=O)NC(=O)CNC(=O)[C@H](CCCCN)NC(=O)[C@H](CCC(N)=O)NC(=O)[C@H](Cc1ccc(O)cc1)NC(=O)[C@H](CCC(=O)O)NC(=O)[C@H](CCC(N)=O)NC(=O)[C@H](Cc1ccc(O)cc1)NC(C)=O)C(=O)N[C@@H](CCCCN)C(N)=O [EBA175_012] (Ac-YQEYQKGNNYKMYSEFKSIK-NH2)	0.226			29.4	14	33.2
CC[C@H](C)[C@H](NC(=O)[C@H](CC(C)C)NC(=O)[C@H](CCCCN)NC(=O)[C@H](CCCCN)NC(=O)[C@H](CCCCN)NC(=O)[C@H](CCCCN)NC(=O)[C@@H](NC(=O)[C@H](CC(N)=O)NC(=O)[C@H](Cc1ccc(O)cc1)NC(=O)[C@H](CCC(=O)O)NC(=O)[C@H](CC(=O)O)NC(C)=O)[C@@H](C)O)C(=O)N[C@@H](CCCCN)C(=O)N[C@@H](CS)C(=O)N[C@H](C(=O)N[C@@H](CCCCN)C(=O)N[C@@H](CC(N)=O)C(=O)N[C@@H](Cc1c[nH]cn1)C(=O)N[C@@H](CCC(=O)O)C(=O)N[C@@H](CC(N)=O)C(=O)N[C@@H](CC(=O)O)C(=O)N[C@@H](Cc1ccccc1)C(=O)N[C@@H](CC(N)=O)C(N)=O)[C@@H](C)CC [RH5_008] (Ac-DEYNTKKKKLIKCIKNHENDFN-NH2)	1			5.14		2.6
CC[C@H](C)[C@H](NC(=O)[C@H](Cc1ccc(O)cc1)NC(=O)[C@H](CCC(=O)O)NC(=O)[C@H](CC(=O)O)NC(=O)[C@H](Cc1ccc(O)cc1)NC(C)=O)C(=O)N[C@@H](Cc1c[nH]cn1)C(=O)N[C@@H](CCCCN)C(=O)N[C@@H](CC(C)C)C(=O)N[C@H](C(=O)N[C@@H](CC(C)C)C(=O)N[C@@H](CO)C(=O)N[C@H](C(=O)N[C@@H](CCCCN)C(=O)N[C@@H](CO)C(=O)N[C@@H](CCCCN)C(=O)N[C@@H](CC(N)=O)C(=O)N[C@@H](CC(C)C)C(=O)N[C@@H](CC(N)=O)C(=O)N[C@@H](CCCCN)C(=O)N[C@@H](CC(=O)O)C(=O)N[C@@H](CC(C)C)C(=O)N[C@@H](CO)C(N)=O)C(C)C)[C@@H](C)CC [RH5_009] (Ac-YDEYIHKLILSVKSKNLNKDLS-NH2)	0.043	10.5	88.8	0.01	0.381	6.46
